Series [1] has as its target T1, recombinant protein KIF18A (kinesin domain: aa 1-467) (Homo sapiens, UniProt Q8NI77).
T1 construct: KIF18A (kinesin domain: aa 1-467); made in house; host or cells: Bac-to-Bac baculovirus expression system (Invitrogen)
T1 sequence (Q8NI77 1-467): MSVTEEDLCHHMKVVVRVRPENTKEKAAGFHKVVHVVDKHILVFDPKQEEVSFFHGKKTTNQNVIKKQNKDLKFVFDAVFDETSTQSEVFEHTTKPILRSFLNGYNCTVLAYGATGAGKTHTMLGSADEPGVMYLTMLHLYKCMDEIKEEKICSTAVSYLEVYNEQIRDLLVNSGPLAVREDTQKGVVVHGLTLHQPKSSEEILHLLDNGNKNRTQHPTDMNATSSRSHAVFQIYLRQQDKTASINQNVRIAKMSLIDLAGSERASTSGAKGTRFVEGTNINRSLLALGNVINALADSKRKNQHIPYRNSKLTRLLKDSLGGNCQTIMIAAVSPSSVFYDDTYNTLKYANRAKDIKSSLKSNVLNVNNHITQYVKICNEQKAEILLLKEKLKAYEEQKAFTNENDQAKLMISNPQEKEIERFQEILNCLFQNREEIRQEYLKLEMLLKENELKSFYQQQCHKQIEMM
As to the kind of experiment: Inhibition of KIF18A enzymatic activity (ADP-Glo kinase assay kit). It is filed as biochemical. Conditions: KIF18A 80 nM, ATP 80 µM, 3 h at room temperature, luminescence. The source says:
The recombinant protein KIF18A (kinesin domain: aa 1-467) used in this assay was expressed by the Bac-to-Bac baculovirus expression system from Invitrogen, and the resulting protein was purified for use in this assay (Seki, M. et al. 2003 Nucleic Acids Res.). Quantitative detection of KIF18A enzymatic activity was completed using an ADP-Glo™ kinase assay kit (Promega Inc). Related procedures strictly followed the product instructions, which are briefly described as follows: The reaction system consisted of a test compound, the recombinant protein KIF18A (aa 1-467), ATP (Promega Inc), and an assay buffer. The test compound was prepared into a 0.5 mM stock solution using DMSO (Sigma Inc) and then serially diluted in DMSO. The assay buffer consisted of an aqueous solution of 15 mM Tris, 10 mM MgCl2 (Sigma Inc), 0.01% Pluronic F-68 (Life Technologies Inc), 1 µM paclitaxel (Cytoskeleton Inc), 30 µg/mL porcine tubulin (Cytoskeleton Inc), and 2% DMSO. […] After all reactions were completed, the luminescence values of the wells were read on a microplate reader (Molecular Device_SpectraMax Id5), and the inhibition ratios were calculated. […] Then, based on the inhibition rates at different compound concentrations, the IC50 value of the test compound was calculated using the GraphPad Prism 8 software.
(ADP-Glo first removes unused ATP, then detects ADP through luciferase.)

Another series relates to NIH:OVCAR-3 cells. As to the kind of experiment: Inhibition of OVCAR3 tumor cell proliferation (CellTiter-Glo). The format is cell-based. Conditions: Homo sapiens, OVCAR-3, 72 h, 3 days drug treatment. The method, then:
NIH:OVCAR-3 cells (ATCC, Cat No. HTB-161, purchased from Co-Bier) were seeded into a T75 culture flask and cultured in an RPMI 1640 medium containing 20% FBS for 3 days in preparation for subsequent culturing and seeding into a 96-well plate for the cell proliferation assay. The OVCAR3 cells were seeded at a density of 3000 cells/100 µL/well into the 96-well cell plate, and then the plate was incubated in an incubator (37 °C, 5% CO2) for 18 h. On the second day, drug treatment was started. Serially diluted test compound solutions (each drug starting at a concentration of 10 µM, diluted in DMSO, with a dilution ratio of 1:3, and nine gradient points for each drug) or DMSO (negative control) was added to the medium in the plate at 100 µL/well, and a blank group was set up with only medium, but no seeded cell strains. After the drug addition, the plate was incubated in the incubator for another 3 days (37 °C, 5% CO2). On the fourth day, plate detection was performed. To each well, 100 µL of CellTiter-Glo reagent (Promega G9243) was added. The plate was shaken for 5 min and then left to stand at room temperature for 5 min. The chemical luminescence signal value of each well was determined using a microplate reader (PerkinElmer EnVision®2104). […] Then, the IC50 value of the test compound was calculated using the GraphPad Prism 8 software.

The next series is described as follows: pKa of the compound. It is filed as physicochemical. Conditions: basic group.

Data on 1 molecule can be found in EP4793274A1, “SALT AND CRYSTAL FORM OF KIF18A INHIBITOR COMPOUND, PREPARATION METHOD THEREFOR AND USE THEREOF” (Hubei Bio-Pharmaceutical Industrial Technological Institute …, priority 2023, dated 2025).

By IC50 is commonly meant the point on the concentration scale where inhibition reaches its midpoint. Usually pKa stands for the pH at which an ionisable group is half protonated. In the case of `Cc1cc(-c2cnn(-c3ccc(NS(=O)(=O)CCO)cc3N3CCC4(CC3)CC4)c2)nc(N2CCC(F)(F)CC2)n1` [compound of formula I, N-(4-(4-(2-(4,4-difluoropiperidin-1-yl)-6-methylpyrimidin-4-yl)-1H-pyrazol-1-yl)-3-(6-azaspiro[2.5]octan-6-yl)phenyl)-2-hydroxyethane-1-sulfonamide], the values for the IC50 (in series [1]; with NIH:OVCAR-3 cells) were 0.011 µM and 0.096 µM, respectively. This molecule showed a pKa in “pKa of the compound” of 4.5.
